Source: patent publication US20150104806A1, “Parkinson's Disease Biomarker” (University of Dundee, priority 2012, published 2015)

Experiments:
human PINK1 [1] = test: Parkin Ser65 phosphorylation in Flp-In T-Rex HEK293 cells expressing PINK1-FLAG after CCCP stimulation; format: cell-based
Procedure: (§1) Flp-In T-Rex stable cell lines were cultured using DMEM (Dulbecco's modified Eagle's medium) supplemented with 10% FBS (Fetal Bovine Serum), 2 mM L-Glutamine, 1× Pen/Strep, 15 μg/ml of Blasticidin and 100 μg/ml of Hygromycin. Cell transfections of HA-parkin or untagged parkin were performed using the polyethyleneimine (PEI) method (Reed et al, 2006). Cultures were induced to express protein by addition of 0.1 μg/ml of Doxycycline in the medium for 24 hours. To uncouple mitochondria, cells were treated with 10 μM CCCP (Sigma) dissolved in DMSO for the indicated times. An equivalent volume of DMSO was used as a control.
Cells were lysed and fractionated by the indicated buffer and methods: Whole cell lysis using buffer: 50 mM Tris/HCl (pH 7.4), 1 mM EGTA, 1 mM EDTA, 1%(w/v) 1 mM sodium orthovanadate, 10 mM sodium β-glycerophosphate, 50 mM NaF, 5 mM sodium pyrophosphate, 0.27M sucrose, 1 mM benzamidine and 2mMPMSF and 1%(v/v) Triton X-100. Lysates were clarified by centrifugation at 13,000 rpm for 10 min at 4° C. and the supernatant was collected. […] Protein concentration was determined using the Bradford method (Thermo Scientific) with BSA as the standard. […]

human PINK1 [2] = test: PINK1 stabilisation, band-shift and Thr257 autophosphorylation in mitochondrial/cytoplasmic extracts of CCCP-treated Flp-In T-Rex HEK293 cells; format: cell-based
Procedure: as §1
Cells were lysed and fractionated by the indicated buffer and methods: Whole cell lysis using buffer: 50 mM Tris/HCl (pH 7.4), 1 mM EGTA, 1 mM EDTA, 1%(w/v) 1 mM sodium orthovanadate, 10 mM sodium β-glycerophosphate, 50 mM NaF, 5 mM sodium pyrophosphate, 0.27M sucrose, 1 mM benzamidine and 2mMPMSF and 1%(v/v) Triton X-100. Lysates were clarified by centrifugation at 13,000 rpm for 10 min at 4° C. and the supernatant was collected. Mitochondrial fractionation: cells were lysed in buffer containing 250 mM sucrose, 20 mM HEPES, 3 mM EDTA, 1%(w/v) 1 mM sodium orthovanadate, 10 mM sodium β-glycerophosphate, 50 mM NaF, 5 mM sodium pyrophosphate, pH 7.5 and protease inhibitor cocktail (Roche) at 4° C. Cells were disrupted using a glass hand held homogeniser (20 passes) and the lysate was clarified by centrifuging for 10 min at 800 g at 4° C. The supernatant was further centrifuged at 16,600 g for 10 min. The resultant supernatant served as the cytosolic fraction. The pellet containing the mitochondrial fraction was resuspended in buffer containing 1% Triton X-100 and centrifuged at 13,000 rpm for 10 min. This supernatant contained solubilized mitochondrial proteins. All lysates were snap-frozen at −80° C. until use. Protein concentration was determined using the Bradford method (Thermo Scientific) with BSA as the standard.
Immunoprecipitation of recombinant PINK1-FLAG was undertaken by standard methods with anti-FLAG agarose beads (Sigma); of HA-parkin with anti-HA agarose beads (Sigma); and of untagged parkin with anti-parkin antibody (S966C) covalently conjugated to protein G-Sepharose. Immunoprecipitates, as well as cell lysates in SDS sample buffer were subjected to SDS-PAGE and transferred to PVDF membranes. For immunoblotting, membranes were incubated for 60 mins with 1% TBST containing either 5% (wt/vol) skimmed milk powder (for total antibodies) or 5% (wt/vol) BSA (for phospho-specific antibodies). The antibodies were then incubated in the same buffer overnight at 4° C. with the indicated primary antibodies. Sheep total and phospho-specific antibodies were used at a concentration of 1 μg/ml, whereas commercial antibodies were diluted 1000-fold. The incubation with phospho-specific sheep antibodies was performed with the addition of 10 μg/ml of the dephosphopeptide antigen used to raise the antibody. Blots were washed with 0.1% TBST and incubated with secondary HRP-conjugated antibodies in 5% skimmed milk for 60 mins. After repeated washes, the signal was detected with the enhanced chemiluminescence and the X-ray films were processed in a Konica Minolta Medical SRX-101 film processor.
10 mg of mitochondrial extract from Flp-In T-Rex HEK 293 cell lines stably PINK1-FLAG were subjected to immunoprecipitation with anti-FLAG-agarose and then eluted in LDS sample buffer. […]

human PINK1 [3] = test: Immunoprecipitation kinase assay of mitochondrial PINK1-FLAG from CCCP-treated HEK293 cells with GST-parkin Ubl (1-108) substrate; format: cell-based
Procedure: (§2) In assays utilising E. coli expressed wild-type or kinase dead (D359A) MBP-TcPINK1, reactions were set up in a volume of 40 μl, with substrates at 1 μg and kinase at 0.5 μg in 50mMTris-HCl (pH 7.5), 0.1 mM EGTA, 10 mM MgCl2, 2 mM dithiothreitol (DTT) and 0.1 mM [γ-^32P] ATP (approximately 500 cpm/pmol). Assays were incubated at 30° C. with shaking at 1200 rpm and terminated after the indicated time by addition of SDS sample buffer. In mammalian HEK293 immunoprecipitation kinase assays, C-terminal-FLAG tagged wild-type or kinase dead (D384A) PINK1 was immunoprecipitated from 5 mg of mitochondrial enriched extracts using anti-FLAG agarose beads and activity measured in a reaction volume of 40 μl consisting of 50 mM Tris-HCl (pH 7.5), 0.1 mM EGTA, 10 mM MgCl2, 2 mM DTT, 0.1 mM [γ-^32P] ATP (2000cpm/pmol) and 5 μg of indicated substrate. Assays were incubated at 30° C. with shaking at 1200 rpm and terminated after 30 min by addition of SDS sample buffer. For all assays, reaction mixtures were resolved by SDS-PAGE. Proteins were detected by Coomassie staining and gels were imaged using an Epson scanner and dried completely using a gel dryer (Bio-Rad). Incorporation of [γ-32P] ATP into substrates was analysed by autoradiography using Amersham Hyper-Film ECL.

PINK1 = biological target: T1, PINK1 (Homo sapiens, UniProt Q9BXM7); test: Lambda phosphatase assay of immunoprecipitated PINK1 followed by in vitro kinase assay; format: biochemical; conditions: 50 mM EDTA with 1000U lambda phosphatase
T1 construct: expressed in transfected cells; host or cells: Flp-In T-Rex HEK293; anti-FLAG immunoprecipitate of mitochondrial enriched extract
Procedure: Wild-type PINK1 was incubated with or without 1000U of Lambda phosphatase (NEB) in a reaction volume of 40 μl consisting of 50 mM Tris pH 7.5, 1 mM MnCl2 and 2 mM DTT. In addition wild-type PINK1 was treated with 1000U of lambda phosphatase in the presence of 50 mM EDTA. Assays were incubated at 30° C. for 30 min with shaking at 1200 rpm. The beads were washed three times in 50 mM Tris pH7.5, 0.1 mM EGTA and then utilized in an in vitro kinase assay with GST-parkin UBL (1-108) as the substrate. Samples were further analyzed as described above.

TcPINK1 = biological target: T2, TcPINK1 (Tribolium castaneum, UniProt D6WMX4); test: In vitro phosphorylation of substrates by TcPINK1; format: biochemical, insect; conditions: time course, GST-parkin, [γ-32P] ATP
T2 construct: full-length MBP-fusion of wild type TcPINK1 (1-570); made in house; host or cells: E. coli BL21 Codon+
T2 sequence (D6WMX4 1-570): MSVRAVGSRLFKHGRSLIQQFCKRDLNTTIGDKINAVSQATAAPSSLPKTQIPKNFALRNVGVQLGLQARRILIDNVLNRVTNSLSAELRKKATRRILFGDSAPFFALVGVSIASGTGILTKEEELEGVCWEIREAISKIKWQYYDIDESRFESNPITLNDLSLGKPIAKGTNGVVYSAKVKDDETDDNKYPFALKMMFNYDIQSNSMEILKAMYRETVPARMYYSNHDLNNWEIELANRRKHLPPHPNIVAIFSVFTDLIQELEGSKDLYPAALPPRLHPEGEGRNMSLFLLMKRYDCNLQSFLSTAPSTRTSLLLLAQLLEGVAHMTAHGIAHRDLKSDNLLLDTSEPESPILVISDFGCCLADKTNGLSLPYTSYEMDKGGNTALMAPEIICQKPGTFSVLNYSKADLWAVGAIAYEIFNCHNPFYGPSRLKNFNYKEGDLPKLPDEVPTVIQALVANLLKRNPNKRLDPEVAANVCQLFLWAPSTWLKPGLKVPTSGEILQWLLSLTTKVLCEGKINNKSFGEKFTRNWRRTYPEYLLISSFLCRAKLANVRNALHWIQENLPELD
Procedure: as §2

T1 sequence (Q9BXM7 whole entry): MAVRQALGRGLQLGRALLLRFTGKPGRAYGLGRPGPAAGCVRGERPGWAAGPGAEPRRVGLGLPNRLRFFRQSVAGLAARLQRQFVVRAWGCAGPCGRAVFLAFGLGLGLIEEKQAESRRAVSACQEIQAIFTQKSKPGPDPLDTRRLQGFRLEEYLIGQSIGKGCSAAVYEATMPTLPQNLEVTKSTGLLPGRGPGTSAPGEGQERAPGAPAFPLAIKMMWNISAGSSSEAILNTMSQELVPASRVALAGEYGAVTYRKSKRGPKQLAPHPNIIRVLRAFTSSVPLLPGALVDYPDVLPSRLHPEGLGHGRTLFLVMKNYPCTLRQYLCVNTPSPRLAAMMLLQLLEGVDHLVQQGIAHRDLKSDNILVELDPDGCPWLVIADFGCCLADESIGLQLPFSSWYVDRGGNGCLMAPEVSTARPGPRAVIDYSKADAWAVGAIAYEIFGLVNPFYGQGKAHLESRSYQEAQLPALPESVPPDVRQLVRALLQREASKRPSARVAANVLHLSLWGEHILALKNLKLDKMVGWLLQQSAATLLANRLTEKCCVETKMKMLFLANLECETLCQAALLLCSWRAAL

N#CC(C#N)=NNc1cccc(Cl)c1 [CCCP, carbonyl cyanide m-chlorophenyl hydrazone]
time at which parkin Ser65 phosphorylation occurs (human PINK1 [1]; 10 μM CCCP time course, phospho-Ser65 antibody): 5 min | parkin phosphorylation at Ser65 (human PINK1 [1]; 10 μM CCCP, 3 hours, HEK293 cells expressing human wild-type PINK1, phospho-specific antibody): induced | levels of full-length PINK1 associated with the mitochondria (human PINK1 [2]; 3 hour CCCP treatment): marked increase | phosphorylation of PINK1 at Thr257 (human PINK1 [2]; CCCP 3 hours, wild type but not kinase-inactive PINK1, phosphospecific Thr257 antibody): markedly stimulated | time to loss of the cleaved form of PINK1 in the cytosol (human PINK1 [2]; CCCP time course, cytoplasmic extracts): ≤ 5 min | time to significant stabilisation of full-length PINK1 at the mitochondria (human PINK1 [2]; CCCP time course, mitochondrial extracts): ≤ 5 min | time to maximal stabilisation of full-length PINK1 at the mitochondria (human PINK1 [2]; CCCP time course, mitochondrial extracts, sustained for up to 3 hours): ≤ 40 min | time of PINK1 activation (immunoprecipitated mitochondrial PINK1 phosphorylating parkin in vitro) (human PINK1 [3]; CCCP time course): around 40 mins | time of maximal PINK1 activation (immunoprecipitated mitochondrial PINK1 phosphorylating parkin in vitro) (human PINK1 [3]; CCCP time course): 3 h | activation of human PINK1 (ability to phosphorylate parkin Ubl domain at Ser65 in vitro) (human PINK1 [3]; PINK1 isolated from CCCP-treated vs non-treated cells): inducing the activation

O=C(O)CN(CCN(CC(=O)O)CC(=O)O)CC(=O)O [EDTA]
effect on lambda phosphatase-induced dephosphorylation of Thr257 and loss of ability of PINK1 to phosphorylate parkin (PINK1): prevented

B1: parkin: human parkin protein expressed in E. coli, substrate of TcPINK1 (protein, UniProt O60260 1-465, looked up)
E3 ubiquitin-protein ligase …: MIVFVRFNSSHGFPVEVDSDTSIFQLKEVVAKRQGVPADQLRVIFAGKELRNDWTVQNCDLDQQSIVHIVQRPWRKGQEMNATGGDDPRNAAGGCEREPQSLTRVDLSSSVLPGDSVGLAVILHTDSRKDSPPAGSPAGRSIYNSFYVYCKGPCQRVQPGKLRVQCSTCRQATLTLTQGPSCWDDVLIPNRMSGECQSPHCPGTSAEFFFKCGAHPTSDKETSVALHLIATNSRNITCITCTDVRSPVLVFQCNSRHVICLDCFHLYCVTRLNDRQFVHDPQLGYSLPCVAGCPNSLIKELHHFRILGEEQYNRYQQYGAEECVLQMGGVLCPRPGCGAGLLPEPDQRKVTCEGGNGLGCGFAFCRECKEAYHEGECSAVFEASGTTTQAYRVDERAAEQARWEAASKETIKKTTKPCPRCHVPVEKNGGCMHMKCPQPQCRLEWCWNCGCEWNRVCMGDHWFDV
modifications: GST tag
notes: human parkin protein expressed in E. coli, substrate of TcPINK1
maximal stoichiometry of phosphorylation by TcPINK1 (TcPINK1): −0.25 moles of 32P-phosphate per mol
